# Data: publication PMC6979384, “Characterization of the plant homeodomain (PHD) reader family for their histone tail interactions” (Epigenetics & Chromatin, 2020)
# Where no end group is shown, it is not given here.
# Tests used:
# Assay in all cases: Histone peptide microarray
# Assay type in all cases: binding, human
# ING2 = conditions: ING2, GST-tagged; arrays performed twice, n of 4
# Source text: (§1) To more comprehensively define the histone interactions of the 31 PHD readers identified from the domain microarray analyses, we probed each on an alternate microarray platform containing a library of 293 synthetic histone peptides with single or combinatorial PTMs (Additional file 2: Figure S4 and Additional file 3: Table S2).
# (§2) The 31 GST-tagged PHD readers identified in the PHD finger domain array were expressed and purified as previously. Histone peptide arrays and peptide pulldown assays were conducted as recently described (specifically, the optimized protocol from Petell et al. for the former).
# (§3) Supplementary file 13072_2020_328_MOESM3_ESM.xlsx: Additional file 3: Table S2. […] Excel Tab Peptide List is a compiled list of the entire 293 histone peptide library with amino acid sequence ranges. […] Each number corresponds to the peptide number designated in Peptide List. Excel Tab Average Signals is a compiled set of binding data: chromatin reader at 0.5 μM vs. entire 293 peptide library. Data is presented as the average and standard deviation of 4 replicates. The average signals are colored to indicate signal intensity with green being strong and white being weak/low. […] Key: red= stronger relative binding; blue = weaker relative binding. Excel Tab Array info summary is a table summarizing the domains, sequence coverage, array signal range, and noise for each of the GST-tagged readers assayed on the peptide microarrays.
# KDM4C (TTP) = conditions: KDM4C (TTP), GST-tagged; arrays performed twice, n of 4
# Source text: as §1, §2, §3
# PHRF1 (RP) = conditions: PHRF1 (RP), GST-tagged; arrays performed twice, n of 4
# Source text: as §1, §2, §3
# MLL5 = conditions: MLL5, GST-tagged; arrays performed twice, n of 4
# Source text: as §1, §2, §3
# PHF8 = conditions: PHF8, GST-tagged; arrays performed twice, n of 4
# Source text: as §1, §2, §3
# CHD4 (PPCC) = conditions: CHD4 (PPCC), GST-tagged; arrays performed twice, n of 4
# Source text: as §1, §2, §3
# AIRE (PP) = conditions: AIRE (PP), GST-tagged; arrays performed twice, n of 4
# Source text: as §1, §2, §3
# ING4 = conditions: ING4, GST-tagged; arrays performed twice, n of 4
# Source text: as §1, §2, §3
# ING3 = conditions: ING3, GST-tagged; arrays performed twice, n of 4
# Source text: as §1, §2, §3
# CHD5 (PCC) = conditions: CHD5 (PCC), GST-tagged; arrays performed twice, n of 4
# Source text: as §1, §2, §3
# TAF3 = conditions: TAF3, GST-tagged; arrays performed twice, n of 4
# Source text: as §1, §2, §3
# SP140L = conditions: SP140L, GST-tagged; arrays performed twice, n of 4
# Source text: as §1, §2, §3
# BPTF (PB) = conditions: BPTF (PB), GST-tagged; arrays performed twice, n of 4
# Source text: as §1, §2, §3
# DIDO1 = conditions: DIDO1, GST-tagged; arrays performed twice, n of 4
# Source text: as §1, §2, §3
# KDM5B (1) = conditions: KDM5B (1), GST-tagged; arrays performed twice, n of 4
# Source text: as §1, §2, §3
# PHF23 = conditions: PHF23, GST-tagged; arrays performed twice, n of 4
# Source text: as §1, §2, §3
# CHD5 (PPCC) = conditions: CHD5 (PPCC), GST-tagged; arrays performed twice, n of 4
# Source text: as §1, §2, §3
# MORC3 (CW) = conditions: MORC3 (CW), GST-tagged; arrays performed twice, n of 4
# Source text: as §1, §2, §3
# ING1 = conditions: ING1, GST-tagged; arrays performed twice, n of 4
# Source text: as §1, §2, §3
# TRIM66 (PB) = conditions: TRIM66 (PB), GST-tagged; arrays performed twice, n of 4
# Source text: as §1, §2, §3
# KDM5A (3) = conditions: KDM5A (3), GST-tagged; arrays performed twice, n of 4
# Source text: as §1, §2, §3
# PHF2 = conditions: PHF2, GST-tagged; arrays performed twice, n of 4
# Source text: as §1, §2, §3
# PHF21A = conditions: PHF21A, GST-tagged; arrays performed twice, n of 4
# Source text: as §1, §2, §3
# KDM5B (3) = conditions: KDM5B (3), GST-tagged; arrays performed twice, n of 4
# Source text: as §1, §2, §3
# DPF2 (PPC2W2) = conditions: DPF2 (PPC2W2), GST-tagged; arrays performed twice, n of 4
# Source text: as §1, §2, §3
# BAZ2B = conditions: BAZ2B, GST-tagged; arrays performed twice, n of 4
# Source text: as §1, §2, §3
# ING5 = conditions: ING5, GST-tagged; arrays performed twice, n of 4
# Source text: as §1, §2, §3
# KDM7A = conditions: KDM7A, GST-tagged; arrays performed twice, n of 4
# Source text: as §1, §2, §3
# KDM5A (1) = conditions: KDM5A (1), GST-tagged; arrays performed twice, n of 4
# Source text: as §1, §2, §3
# PHF13 = conditions: PHF13, GST-tagged; arrays performed twice, n of 4
# Source text: as §1, §2, §3
# RAG2 = conditions: RAG2, GST-tagged; arrays performed twice, n of 4
# Source text: as §1, §2, §3
Array Heatmap value (peptide array binding signal) (ING2),Array Heatmap value (peptide array binding signal) (KDM4C (TTP)),Array Heatmap value (peptide array binding signal) (PHRF1 (RP)),Array Heatmap value (peptide array binding signal) (MLL5),Array Heatmap value (peptide array binding signal) (PHF8),Array Heatmap value (peptide array binding signal) (CHD4 (PPCC)),Array Heatmap value (peptide array binding signal) (AIRE (PP)),Array Heatmap value (peptide array binding signal) (ING4),Array Heatmap value (peptide array binding signal) (ING3),Array Heatmap value (peptide array binding signal) (CHD5 (PCC)),Array Heatmap value (peptide array binding signal) (TAF3),Array Heatmap value (peptide array binding signal) (SP140L),Array Heatmap value (peptide array binding signal) (BPTF (PB)),Array Heatmap value (peptide array binding signal) (DIDO1),Array Heatmap value (peptide array binding signal) (KDM5B (1)),Array Heatmap value (peptide array binding signal) (PHF23),Array Heatmap value (peptide array binding signal) (CHD5 (PPCC)),Array Heatmap value (peptide array binding signal) (MORC3 (CW)),Array Heatmap value (peptide array binding signal) (ING1),Array Heatmap value (peptide array binding signal) (TRIM66 (PB)),Substance,further results
0.5892,0.4403,0.3855,0.5006,0.3344,0.5396,0.3861,0.3991,0.4524,0.7354,0.2353,0.3411,0.3189,0.6117,0.624,0.4986,0.4838,0.339,0.4946,0.556,"H2A.Z (1-19) (N-ac): H2AZ 1-19 (Ac-AGGKAGKDSGKAKTKAVSR; UniProt P0C0S5 2-20, looked up, fragment)",Array Heatmap value (peptide array binding signal) (KDM5A (3)): 0.4284; Array Heatmap value (peptide array binding signal) (PHF2): 0.4703; Array Heatmap value (peptide array binding signal) (PHF21A): 0.4295; Array Heatmap value (peptide array binding signal) (KDM5B (3)): 0.4159; Array Heatmap value (peptide array binding signal) (DPF2 (PPC2W2)): 0.6034; Array Heatmap value (peptide array binding signal) (BAZ2B): 0.3915; Array Heatmap value (peptide array binding signal) (ING5): 0.2996; Array Heatmap value (peptide array binding signal) (KDM7A): 0.3467; Array Heatmap value (peptide array binding signal) (KDM5A (1)): 0.3887; Array Heatmap value (peptide array binding signal) (PHF13): 0.5558; Array Heatmap value (peptide array binding signal) (RAG2): 0.2204
0.6115,0.563,0.5374,0.5607,0.402,0.6658,0.4876,0.5367,0.5693,0.7976,0.3163,0.3948,0.4073,0.7863,0.6378,0.5743,0.6481,0.3781,0.6166,0.6377,"H2A.Z (1-19): H2AZ 1-19 (AGGKAGKDSGKAKTKAVSR; UniProt P0C0S5 2-20, looked up, fragment)",Array Heatmap value (peptide array binding signal) (KDM5A (3)): 0.4992; Array Heatmap value (peptide array binding signal) (PHF2): 0.6568; Array Heatmap value (peptide array binding signal) (PHF21A): 0.4938; Array Heatmap value (peptide array binding signal) (KDM5B (3)): 0.4993; Array Heatmap value (peptide array binding signal) (DPF2 (PPC2W2)): 0.7315; Array Heatmap value (peptide array binding signal) (BAZ2B): 0.5259; Array Heatmap value (peptide array binding signal) (ING5): 0.4264; Array Heatmap value (peptide array binding signal) (KDM7A): 0.3952; Array Heatmap value (peptide array binding signal) (KDM5A (1)): 0.5328; Array Heatmap value (peptide array binding signal) (PHF13): 0.7054; Array Heatmap value (peptide array binding signal) (RAG2): 0.2847
0.6161,0.565,0.5134,0.5838,0.4227,0.6197,0.5817,0.5392,0.5369,0.8638,0.3233,0.395,0.4048,0.7683,0.6584,0.5933,0.6452,0.4285,0.5984,0.6947,"H2A.Z K4ac + K8ac + K12ac (1-19) (N-ac): H2AZ 1-19 (Ac-AGGKAGKDSGKAKTKAVSR; not fully specified (residue 4); UniProt P0C0S5 2-20, looked up, fragment)",Array Heatmap value (peptide array binding signal) (KDM5A (3)): 0.4842; Array Heatmap value (peptide array binding signal) (PHF2): 0.5309; Array Heatmap value (peptide array binding signal) (PHF21A): 0.5429; Array Heatmap value (peptide array binding signal) (KDM5B (3)): 0.5225; Array Heatmap value (peptide array binding signal) (DPF2 (PPC2W2)): 0.7519; Array Heatmap value (peptide array binding signal) (BAZ2B): 0.5346; Array Heatmap value (peptide array binding signal) (ING5): 0.4262; Array Heatmap value (peptide array binding signal) (KDM7A): 0.3929; Array Heatmap value (peptide array binding signal) (KDM5A (1)): 0.5365; Array Heatmap value (peptide array binding signal) (PHF13): 0.6948; Array Heatmap value (peptide array binding signal) (RAG2): 0.271
